The record followed here is paper PMC2932867 (Human mutation, 2010).

Numbering of substitutions follows the chain as printed. Numbers in names are those of the source.

Data set [1] concerns the target T1, human ATR (ATP:cob(I)alamin adenosyltransferase; hATR) (Homo sapiens, UniProt Q96EY8).
T1 sequence (Q96EY8 33-250): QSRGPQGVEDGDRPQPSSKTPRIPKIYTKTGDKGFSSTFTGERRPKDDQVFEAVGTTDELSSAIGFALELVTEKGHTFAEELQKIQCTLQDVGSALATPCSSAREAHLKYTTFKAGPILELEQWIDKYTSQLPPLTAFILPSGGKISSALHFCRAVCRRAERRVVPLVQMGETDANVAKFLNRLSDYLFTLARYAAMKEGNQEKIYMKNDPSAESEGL
Kind of data set: intrinsic fluorescence titration. Type of data set: binding. Conditions: read-out: wild-type; 50 mM Tris-HCl pH 8.0.

Data set [2] addresses T2, human ATR (ATP:cob(I)alamin adenosyltransferase; hATR) (Homo sapiens, UniProt Q96EY8, I96T).
T2 sequence (Q96EY8 33-250 I96T): T1 sequence (Q96EY8 33-250) with I64T
Kind of data set: intrinsic fluorescence titration. The data set is classed as binding. The following applies: read-out: p.I96T; 50 mM Tris-HCl pH 8.0.

The data set “SEC” concerns the molecule itself. Kind of data set: SEC.

As to CNCbl, the Kd in data set [1] came to 7.8 ± 0.5 µM; in data set [2], 13.3 ± 0.3 µM.

B1: ATP:cob(I)alamin adenosyltransferase p.I96T mutant, human, without the mitochondrial targeting sequence (enzyme, UniProt Q96EY8 33-250, looked up)
chain: T1 sequence (Q96EY8 33-250) with I64T
With B1, the “stoichiometry N” value in “SEC” turned out to be 3.
